This note sets out measurements from patent publication US11661410B2 (GLOBAL BLOOD THERAPEUTICS, INC., priority 2017, dated 2023).

Read-outs that look alike come from different tables or passages of the source.

This experiment deals with G9a (Homo sapiens (Human), UniProt Q96KQ7). In words: G9a AlphaLISA enzymatic activity assay. It is filed as biochemical. (In general: In Alpha technology, singlet oxygen from a donor bead excites a nearby acceptor bead.)
[1] abbreviates: G9a AlphaLISA, negative log of the IC50 value in molar.

G9a, sequence (Q96KQ7 whole entry): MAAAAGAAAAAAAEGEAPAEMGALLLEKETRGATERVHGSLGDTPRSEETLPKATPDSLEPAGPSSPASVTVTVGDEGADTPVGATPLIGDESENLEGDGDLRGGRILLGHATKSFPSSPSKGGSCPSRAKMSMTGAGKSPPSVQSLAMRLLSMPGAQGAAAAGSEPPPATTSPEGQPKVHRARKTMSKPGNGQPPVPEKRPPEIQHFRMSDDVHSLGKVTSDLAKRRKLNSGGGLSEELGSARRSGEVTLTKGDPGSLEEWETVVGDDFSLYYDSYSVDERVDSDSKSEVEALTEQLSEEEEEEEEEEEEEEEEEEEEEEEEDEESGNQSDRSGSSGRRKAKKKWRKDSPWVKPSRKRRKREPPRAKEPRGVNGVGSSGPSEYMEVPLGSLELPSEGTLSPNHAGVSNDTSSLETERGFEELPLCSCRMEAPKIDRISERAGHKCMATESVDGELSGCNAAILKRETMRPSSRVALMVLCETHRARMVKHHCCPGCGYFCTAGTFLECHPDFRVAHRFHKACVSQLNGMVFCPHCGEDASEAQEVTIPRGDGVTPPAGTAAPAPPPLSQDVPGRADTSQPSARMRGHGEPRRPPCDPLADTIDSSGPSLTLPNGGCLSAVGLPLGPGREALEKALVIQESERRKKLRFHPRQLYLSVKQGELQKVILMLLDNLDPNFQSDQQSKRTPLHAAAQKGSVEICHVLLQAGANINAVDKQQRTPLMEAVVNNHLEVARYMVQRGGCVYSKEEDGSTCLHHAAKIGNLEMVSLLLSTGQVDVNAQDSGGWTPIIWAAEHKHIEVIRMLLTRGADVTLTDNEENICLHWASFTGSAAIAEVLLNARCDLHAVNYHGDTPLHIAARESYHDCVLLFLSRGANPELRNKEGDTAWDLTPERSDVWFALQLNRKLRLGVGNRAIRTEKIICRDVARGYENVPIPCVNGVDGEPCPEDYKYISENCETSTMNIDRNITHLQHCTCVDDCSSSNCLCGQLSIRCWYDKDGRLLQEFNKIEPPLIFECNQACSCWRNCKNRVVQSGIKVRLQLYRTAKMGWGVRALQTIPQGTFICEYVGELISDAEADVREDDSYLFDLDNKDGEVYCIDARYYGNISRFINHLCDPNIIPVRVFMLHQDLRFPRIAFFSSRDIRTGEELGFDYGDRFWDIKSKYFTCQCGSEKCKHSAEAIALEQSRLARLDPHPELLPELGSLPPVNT

Turning to `COc1cc2c(NC3CCN(C(C)C)CC3)c3c(nc2cc1O)CCC3` [Example 35], the pIC50 – broadly, the IC50 on a negative log10 scale, so that one unit is a factor of ten – under setting [1] is 7.94.
Under setting [1], `COc1cc2c(NC3CCN(C(C)C)CC3)c3c(nc2cc1OC(F)F)CCC3` [Example 36] registered a pIC50 of 5.42.
`COc1cc2nc3c(c(NCc4cn(C)cn4)c2cc1OC)CCC3` [Example 41] gave a pIC50 of 5.32.
With `COc1cc2nc3c(c(NC4CCN(C(CO)CCl)CC4)c2cc1OC)CCC3` (stereo not drawn) [Example 44], the pIC50 under setting [1] came out at 5.49.
`COc1cc2nc3c(c(NC4CCN(Cc5ccccc5)CC4)c2cc1OC)CCC3` [Example 45] came in with a pIC50 under setting [1] of 7.07.
In the case of `COc1cc2nc3ccccc3c(NC3CCN(C(C)C)CC3)c2cc1OC` [Example 46], the pIC50 stood at 6.75.
The molecule `COc1cc2nc3ccccc3c(NC3CCN(C(C)C)CC3)c2cc1OC` [Example 47] registered a pIC50 of 7.1.
`COc1cc2nc3c(c(NC4CCN(c5ccccc5OC)CC4)c2cc1OC)CCC3` [Example 49] displayed a pIC50 under setting [1] of 5.63.
`COc1cc2nc3c(c(NC4CCN(c5cccc(Cl)c5)CC4)c2cc1OC)CCC3` [Example 50] registered a pIC50 under setting [1] of 5.53.
Still for that read-out and setting: the value for `COc1cc2c(NC3CCN(C(C)C)CC3)c3c(nc2cc1OCCCO)CCC3` [Example 51] was 6.45; that for `COc1cc2nc3c(c(NC4CCN(C(=O)COCc5ccccc5)CC4)c2cc1OC)CCC3` [Example 52] was 6.39.
Regarding `COc1cc2c(NC3CCN(C(C)C)CC3)c3c(nc2cc1OCCO)CCC3` [Example 53, 2-[(7-methoxy-9-{[1-(propan-2-yl)piperidin-4-yl]amino}-1H,2H,3H-cyclopenta[b]quinolin-6-yl)oxy]ethan-1-ol], under setting [1], the pIC50 amounted to 6.54.
Molecule `COc1cc2nc3c(c(NC4CCN(C(=O)CO)CC4)c2cc1OC)CCC3` [Example 54, 1-[4-({6,7-dimethoxy-1H,2H,3H-cyclopenta[b]quinolin-9-yl}amino)piperidin-1-yl]-2-hydroxyethan-1-one] had a pIC50 under setting [1] of 6.24.
The molecule `COc1cc2nc3c(c(NC4CCN(c5ccncc5F)CC4)c2cc1OC)CCC3` [Example 55, N-{6,7-dimethoxy-1H,2H,3H-cyclopenta[b]quinolin-9-yl}-1-(3-fluoropyridin-4-yl)piperidin-4-amine] had a pIC50 under setting [1] of 6.05.
In the case of `COc1cc2c(NC3CCN(C(C)C)CC3)c3c(nc2cc1C1CC1)CCC3` [Example 57, N-{6-cyclopropyl-7-methoxy-1H,2H,3H-cyclopenta[b]quinolin-9-yl}-1-(propan-2-yl)piperidin-4-amine], the negative-log IC50 (pIC50) under setting [1] turned out to be 6.72.
On to `COc1cc2nc3c(c(NC4CCN(C(N)=O)CC4)c2cc1OC)CCC3` [Example 58, 4-({6,7-dimethoxy-1H,2H,3H-cyclopenta[b]quinolin-9-yl}amino)piperidine-1-carboxamide], for which the pIC50 under setting [1] amounted to 6.12.
`COc1cc2nc3c(c(NC4CCN(c5cccc(F)c5F)CC4)c2cc1OC)CCC3` [Example 59, 1-(2,3-difluorophenyl)-N-{6,7-dimethoxy-1H,2H,3H-cyclopenta[b]quinolin-9-yl}piperidin-4-amine] showed a pIC50 under setting [1] of 5.3.
As for `COc1cc2nc3c(c(NC4CCN(C5CCCC5)CC4)c2cc1OC)CCC3` [Example 60, 1-cyclopentyl-N-{6,7-dimethoxy-1H,2H,3H-cyclopenta[b]quinolin-9-yl}piperidin-4-amine], under setting [1], the pIC50 was 7.4.
Under setting [1], `COCCN1CCC(Nc2c3c(nc4cc(OC)c(OC)cc24)CCC3)CC1` [Example 61, N-{6,7-dimethoxy-1H,2H,3H-cyclopenta[b]quinolin-9-yl}-1-(2-methoxyethyl)piperidin-4-amine] came in with a pIC50 of 6.7.
`COc1cc2nc3c(c(N[C@@H]4CCCNCC4)c2cc1OC)CCC3` [Example 62, (4R)-N-{6,7-dimethoxy-1H,2H,3H-cyclopenta[b]quinolin-9-yl}azepan-4-amine]: the pIC50 under setting [1] is given as 7.5.
Under setting [1], `COc1cc2nc3c(c(N[C@@H]4CCCN(C)CC4)c2cc1OC)CCC3` [Example 63, (4R)-N-{6,7-dimethoxy-1H,2H,3H-cyclopenta[b]quinolin-9-yl}-1-methylazepan-4-amine] had a negative logarithm of the IC50 (pIC50) of 7.5.
